Read-outs that look alike come from different tables or passages of the source.
Biological target: T1, 5α-Reductase of Rat Liver Microsomes (Rattus norvegicus, UniProt P24008)
T1 sequence (P24008 1-259): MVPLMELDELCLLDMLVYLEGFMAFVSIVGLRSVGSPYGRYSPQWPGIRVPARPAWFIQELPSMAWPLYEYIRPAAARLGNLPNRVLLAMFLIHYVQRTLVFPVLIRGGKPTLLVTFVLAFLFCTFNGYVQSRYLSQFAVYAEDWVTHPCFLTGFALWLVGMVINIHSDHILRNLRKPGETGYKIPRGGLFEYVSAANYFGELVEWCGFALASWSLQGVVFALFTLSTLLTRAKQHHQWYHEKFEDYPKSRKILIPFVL
Test: biochemical
Conditions: for inhibition at 5 µM: read-out: % Inhibition of [^3 H]4-MA binding, Table 2, 5 μM

[1] = read-out: % Inhibition of [^3 H]4-MA binding, Table 2, 10 μM
[2] = read-out: % Inhibition of [^3 H]4-MA binding, Table 2, 40 μM
[3] = read-out: % Inhibition of [^3 H]4-MA binding, Table 2, 200 μM
[4] = read-out: % Inhibition of [^3 H]4-MA binding

Description: Briefly, the binding assay solution, in a final volume of 0.15 ml, contained microsomes (2-20 μg of protein), 0.08 μCi of [^3 H]4-MA, 0.1 mM-NADPH, 1 mM-dithiothreitol and 50 mM-potassium phosphate, pH 7.0, with or without the indicated amount of a lipid or an inhibitor preparation. Lipids were dissolved in ethanol and added in 1-5 μl volumes. Control tubes received the same amount of ethanol. After incubation at 0° C. for 1 h, the [^3 H]4-MA bound to microsomes was determined by collecting microsomes on a Whatman GF/1F glass fibre filter and washing with 10 ml of 20 mM-potassium phosphate, pH 7.0, containing 0.01% CHAPS to remove unbound [^3 H]4-MA.
Microsomes were prepared at 4° C. from a buffered 0.32M-sucrose homogenate of human liver and from the livers of adult Sprague-Dawley female rats by differential centrifugation as described previously (Liang et al., 1990), and were used in the assay of 5α-reductase activity. In some experiments, microsomes were solubilized with 0.1% polyoxyethylene ether W-1 as described previously (Liang et al., 1990), except for the substitution of polyoxyethylene ether W-1 for Lubrol-WX.

| inhibition at 40 µM [4] [%] | inhibition at 200 µM [4] [%] | inhibition at 10 µM [4] [%] | SMILES | IC50 [µM] | inhibition at 5 µM [%] | inhibition at 10 µM [1] [%] | inhibition at 40 µM [2] [%] | inhibition at 200 µM [3] [%] |
| --- | --- | --- | --- | --- | --- | --- | --- | --- |
|  |  |  | CCCCC/C=C\C/C=C\CCCCCCCCCC(=O)O [11,14-cis-Eicosadienoic Acid, 11,14 eicosadienoic acid] | 131 | < 10 | < 10 | < 10 | 89 |
|  |  |  | CCCCC/C=C\C/C=C\CCCCCCCCCC(=O)Cl [11,14-cis-Eicosaidienoyl Chloride, 11,14-eicosadienoyl chloride] | > 200 | < 10 | < 10 | < 10 | < 10 |
|  |  |  | CCCCC/C=C/C/C=C/CCCCCCCCCC(=O)O [11,14-trans-Eicosadienoic Acid, trans 11,14-eicosadienoic acid] | > 200 | < 10 | < 10 | < 10 | < 10 |
|  |  |  | CCCCCCCC/C=C\CCCCCCCCCC(=O)O [11-Eicosenoic Acid, 11 eicosenoic acid] | 146 | < 10 | < 10 | 15 | 76 |
|  |  |  | CCCCCC/C=C\CCCCCCCCCC(=O)O [11-Octadecenoic Acid, 11-octadecenoic acid] | 26 | < 10 | 14 | 55 | 81 |
|  |  |  | CCCCC/C=C\CCCCCCCCCCC(=O)O [12-Octadecenoic Acid, 12-octadecenoic acid] | > 200 | < 10 | < 10 | < 10 | < 10 |
|  |  |  | CCCCCC/C=C\CCCCCCCCCCC(=O)O [12-cis-Nonadecenoic Acid, 12-nonadecenoic acid] | 90 | < 10 | < 10 | 32 | 91 |
|  |  |  | CC/C=C\C/C=C\C/C=C\CCCCCCCCCCCC(=O)O [13,16,19-Docosatrienoic Acid, 13,16,19-docosatrienoic acid] | 163 | < 10 | < 10 | < 10 | 65 |
|  |  |  | CCCCC/C=C\C/C=C\CCCCCCCCCCCC(=O)O [13,16-Docosadienoic Acid, 13,16-docosadienoic acid] | 118 | < 10 | < 10 | 21 | 93 |
|  |  |  | CCCC/C=C\CCCCCCCCCCCC(=O)O [13-Octadecenoic Acid, 13-octadecenoic acid] | 93 | < 10 | < 10 | < 10 | 57 |
|  |  |  | CCCCCCCC/C=C\CCCCCCCCCCCCC(=O)O [14-Tricosenoic Acid, 14 tricosenoic acid] | > 200 | < 10 | < 10 | < 10 | 36 |
|  |  |  | CCCCCCCCCCCCCCCCCCCC(=O)Cl [Arachidoyl Chloride, archidoyl chloride] | > 200 |  | < 10 | < 10 | < 10 |
| < 10 | < 10 |  | CCCCC/C=C\C/C=C\CCCCCCCC(=O)OC [Linoleic acid methyl ester] |  |  |  |  |  |
|  | < 10 |  | CC/C=C\C/C=C\C/C=C\CCCCCCCC(=O)Cl [Linolenoyl Chloride] |  |  |  |  |  |
| < 10 | 25 ± 5 | < 10 | CCCCC/C=C\C/C=C\CCCCCCCCO [Linoleyl alcohol] |  |  |  |  |  |

Source: US5605929A, “Methods and compositions for inhibiting 5α-reductase activity” (priority 1995, dated 1997)
